Test results taken from PMC7572458, “Multiple mutations in the EPSPS and ALS genes of Amaranthus hybridus underlie resistance to glyphosate and ALS inhibitors” (Scientific Reports, 2020).

What was measured:
[1] = test system: T1, ALS (acetolactate synthase); assay: acetoin colorimetric (creatine/naphthol, […] nm), crude leaf extract; type: biochemical, Amaranthus hybridus; conditions: MR2 population, zygosity not given; pyruvate, MgCl2, FAD, pH 7.5, 37 °C, 1 h; stated gain; read-out: I50 (μM) ± SE
T1 construct: native, crude seedling leaf extract supernatant (15,000 g), not purified

[2] = target: T2, ALS (acetolactate synthase) (Amaranthus hybridus, UniProt A0A346FHL9); assay: as above; type: biochemical; conditions: read-out: I50 (μM) ± SE
T2 construct: native, crude seedling leaf extract supernatant (15,000 g), not purified
T2 sequence (A0A346FHL9 81-669 limits assumed): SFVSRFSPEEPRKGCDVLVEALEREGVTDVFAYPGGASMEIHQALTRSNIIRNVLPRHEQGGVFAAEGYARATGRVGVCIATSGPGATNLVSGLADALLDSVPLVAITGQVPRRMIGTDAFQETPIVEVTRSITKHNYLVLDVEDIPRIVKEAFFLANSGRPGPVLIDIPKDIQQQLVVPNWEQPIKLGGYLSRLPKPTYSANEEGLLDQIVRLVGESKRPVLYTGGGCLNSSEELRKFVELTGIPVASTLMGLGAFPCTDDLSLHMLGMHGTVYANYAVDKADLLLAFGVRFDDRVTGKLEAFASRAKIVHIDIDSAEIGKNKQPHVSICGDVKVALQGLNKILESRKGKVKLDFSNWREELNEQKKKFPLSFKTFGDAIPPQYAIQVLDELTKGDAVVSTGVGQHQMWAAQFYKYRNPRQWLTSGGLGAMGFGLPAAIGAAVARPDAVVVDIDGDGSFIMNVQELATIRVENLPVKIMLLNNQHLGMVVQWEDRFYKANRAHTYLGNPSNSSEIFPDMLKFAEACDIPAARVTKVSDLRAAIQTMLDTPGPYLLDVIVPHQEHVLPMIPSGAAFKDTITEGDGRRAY

Row | SMILES | IC50 [1] [µM] | IC50 [2] [µM]
1 | COc1cc(OC)nc(Oc2cccc(Oc3nc(OC)cc(OC)n3)c2C(=O)O)n1 [byspiribac] | 2730 ± 80 | 45.9 ± 8
2 | COc1ncc(F)c2nc(S(=O)(=O)Nc3c(F)cccc3F)nn12 [florasulam] | 56.5 ± 9 | 17.4 ± 1.4
3 | COc1nn(C(=O)NS(=O)(=O)c2ccccc2OC(F)(F)F)c(=O)n1C [flucarbazone] | 145 ± 11.5 | 1 ± 0.1
4 | COCc1cnc(C2=NC(C)(C(C)C)C(=O)N2)c(C(=O)O)c1 (stereo not shown) [imazamox] | 3170 ± 112 | 117 ± 9.1
5 | COC(=O)c1ccccc1S(=O)(=O)NC(=O)N(C)c1nc(C)nc(OC)n1 [tribenuron-methyl] | 273 ± 26 | 47.5 ± 6.3
